Where a SMILES comes first, the peptide text is derived from it. [ ]: non-standard residue; d: D form. The star is where a group is joined. ξ: configuration not given here. FITC = O=C1OC2(c3ccc(O)cc3Oc3cc(O)ccc32)c2ccc(NC(=S)*)cc21; Phe(4-NO2) = N[C@@H](Cc1ccc([N+](=O)[O-])cc1)C(=O)O; ξAla(4-thiazolyl) = NC(Cc1cscn1)C(=O)O; pS = N[C@@H](COP(=O)(O)O)C(=O)O; β3hS = N[C@@H](CO)CC(=O)O; Nva = CCC[C@H](N)C(=O)O; AEA = NCCOCC(=O)O; βAla = NCCC(=O)O
Target: T1, 14-3-3γ (Homo sapiens, UniProt P61981)
T1 construct: made in house; host or cells: E. coli NiCo21 (DE3)
T1 sequence (P61981 1-247): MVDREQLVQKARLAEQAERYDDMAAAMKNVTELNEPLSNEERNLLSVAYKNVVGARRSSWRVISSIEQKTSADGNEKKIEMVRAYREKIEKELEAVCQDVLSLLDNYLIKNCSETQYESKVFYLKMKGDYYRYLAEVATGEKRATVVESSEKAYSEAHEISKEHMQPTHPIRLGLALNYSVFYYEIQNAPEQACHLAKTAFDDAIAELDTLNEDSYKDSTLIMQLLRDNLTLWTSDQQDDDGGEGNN
Experiment: Fluorescence anisotropy (FA) binary binding study: 14-3-3 titrated to fluorescein-labelled peptide
Settings: for individual ΔΔG of removed residue / ΔΔG (to previous): FA; for individual ΔΔG of removed residue: ΔG relative to the previously truncated peptide; for fold change in binding affinity on truncation: FA KD relative to the previous (one amino acid longer) peptide
Protocol: 14-3-3γ protein expression (FP/ITC experiments)
(§1) A pPROEX HTb expression vector encoding the human 14-3-3 protein gamma (14-3-3γ) with an N-terminal his6-tag was transformed by heat shock into NiCo21 (DE3) competent cells. Single colonies were cultured in 50 mL LB medium (100 µg/mL ampicillin). After overnight incubation at 37 °C, cultures were transferred to 2 L TB media (100 µg/mL ampicillin, 1 mM MgCl2) and incubated at 37 °C until an OD600 nm of 0.8-1.2 was reached. Protein expression was then induced with 0.4 mM isopropyl-β-d-thiogalactoside (IPTG), and cultures were incubated overnight at 18 °C. Cells were harvested by centrifugation (8600 rpm, 20 minutes, 4 °C) and resuspended in lysis buffer (50 mM Hepes, pH 8.0, 300 mM NaCl, 12.5 mM imidazole, 5 mM MgCl2, 2 mM βME) containing cOmplete™ EDTA-free Protease Inhibitor Cocktail tablets (1 tablet/100 ml lysate) and benzonase (1 µl/100 ml). After lysis using a C3 Emulsiflex-C3 homogenizer (Avestin), the cell lysate was cleared by centrifugation (20000 rpm, 30 minutes, 4 °C) and purified using Ni2+-affinity chromatography (Ni-NTA superflow cartridges, Qiagen).
Typically two 5 mL columns (flow 5 mL/min) were used for a 2 L culture in which the lysate was loaded on the column washed with 10 CV wash buffer (50 mM Hepes, pH 8.0, 300 mM NaCl, 25 mM imidazole, 2 mM βME) and eluted in several fractions (2-4 CV) of elution buffer (50 mM Hepes, pH 8.0, 300 mM NaCl, 250 mM imidazole, 2 mM βME). Fractions containing the 14-3-3 protein were combined and dialyzed into 25 mM HEPES pH 8.0, 100 mM NaCl, 10 mM MgCl2, 500 µM TCEP. Finally, the protein was concentrated to ∼60 mg/mL, analyzed Q-Tof LC/MS, and aliquots were flash-frozen for storage at […]
as §1, with “sigma truncated after T231 (14-3-3σΔc) and” for “gamma (14-3-3γ)”, “tablet/ 100” for “tablet/100”, “µl/ 100” for “µl/100”, “ml).” for “ml). After lysis using a C3 Emulsiflex-C3 homogenizer (Avestin), the cell lysate was cleared by centrifugation (20000 rpm, 30 minutes, 4 °C) and purified using Ni2+-affinity chromatography (Ni-NTA superflow cartridges, Qiagen).”
After lysis using a C3 Emulsiflex-C3 homogenizer (Avestin), the cell lysate was cleared by centrifugation (20000 rpm, 30 minutes, 4 °C) and purified using Ni2+-affinity chromatography (Ni-NTA superflow cartridges, Qiagen). Typically two 5 mL columns were used for a 2 L culture in which the lysate was loaded on the column washed with 10 CV wash buffer (50 mM Hepes, pH 8.0, 300 mM NaCl, 25 mM imidazole, 2 mM βME) and eluted with several fractions (2-4 CV) of elution buffer (50 mM Hepes, pH 8.0, 300 mM NaCl, 250 mM imidazole, 2 mM βME). Fractions containing the 14-3-3 protein were combined and dialyzed into 25 mM HEPES pH 8.0, 200 mM NaCl, 10 mM MgCl2, 2 mM βME. In addition, 1 mg TEV was added for each 100 mg purified protein to remove the purification tag. The cleaved sample was then again loaded on a 10 mL Ni-NTA column to separate the cleaved product from the expression tag and residual uncleaved protein. The flowthrough was loaded on a Superdex 75 pg 16/60 size exclusion column (GE Life Sciences) using 25 mM HEPES, 100 mM NaCl, 10 mM MgCl2, 500 μM TCEP (adjusted to pH=8.0) as running buffer. Fractions containing the 14-3-3 protein were pooled and concentrated to ∼60 mg/mL, analyzed Q-Tof LC/MS, and aliquots were flash-frozen for storage at −80 […]
The peptides 1 and 2a-d were synthesized on 50 µmol scale on a Rink amide MBHA resin […]

[1] = Table S2, FA KD of peptide divided by KD of previous (one amino acid longer) peptide, mean of n = 3
[2] = Table S2, KD / KD of previous (one amino acid longer) peptide, replicate 1
[3] = Table S2, KD / KD of previous (one amino acid longer) peptide, replicate 2
[4] = Table S2, KD / KD of previous (one amino acid longer) peptide, replicate 3
[5] = Table S2, calculated from FA KD, mean of n = 3
[6] = Table S2, from FA KD, replicate 1
[7] = Table S2, from FA KD, replicate 2
[8] = Table S2, from FA KD, replicate 3
[9] = Table S2, ΔG minus ΔG of previous peptide, replicate 1
[10] = Table S2, ΔG minus ΔG of previous peptide, replicate 2
[11] = Table S2, ΔG minus ΔG of previous peptide, replicate 3
[12] = Table S2, ΔG of peptide minus ΔG of previous (one amino acid longer) peptide, mean of n = 3
[13] = Table S3, FA KD of peptide divided by KD of previous (one amino acid longer) peptide, mean of n = 3
[14] = Table S3, KD / KD of previous peptide, replicate 1
[15] = Table S3, KD / KD of previous peptide, replicate 2
[16] = Table S3, KD / KD of previous peptide, replicate 3
[17] = Table S3, calculated from FA KD, mean of n = 3
[18] = Table S3, from FA KD, replicate 1
[19] = Table S3, from FA KD, replicate 2
[20] = Table S3, from FA KD, replicate 3
[21] = Table S3, ΔG minus ΔG of previous peptide, replicate 1
[22] = Table S3, ΔG minus ΔG of previous peptide, replicate 2
[23] = Table S3, ΔG minus ΔG of previous peptide, replicate 3
[24] = Table S3, ΔG of peptide minus ΔG of previous (one amino acid longer) peptide, mean of n = 3

Compound	individual ΔΔG of removed residue	Fold change to previous [1]	Fold change to previous [2]	Fold change to previous [3]	Fold change to previous [4]	ΔG [5]	ΔG [6]	ΔG [7]	Fold change to previous [13]	Fold change to previous [14]	Fold change to previous [15]	Fold change to previous [16]	ΔG [17]	ΔG [18]	ΔG [19]	ΔG [20]	ΔΔG (to previous) [21]	ΔΔG (to previous) [22]	ΔΔG (to previous) [23]	ΔΔG (to previous) [24]	further results
CCC[C@H](N)C(=O)N[C@@H](Cc1ccc([N+](=O)[O-])cc1)C(=O)NC(Cc1cscn1)C(=O)N[C@@H](COP(=O)(O)O)C(=O)N[C@@H](Cc1ccc([N+](=O)[O-])cc1)C(=O)N[C@@H](CO)CC(=O)NCCC(=O)N[C@@H](Cc1ccc([N+](=O)[O-])cc1)C(=O)N[C@@H](CCCCN)C(=O)N[C@@H](C)C(=O)N[C@@H](CCCCNC(=S)Nc1ccc2c(c1)C(=O)OC21c2ccc(O)cc2Oc2cc(O)ccc21)C(N)=O (stereo partly drawn) [2a] (H-[Nva][Phe(4-NO2)][ξAla(4-thiazolyl)][pS][Phe(4-NO2)][β3hS][βAla][Phe(4-NO2)]KAK(FITC)-NH2)	only minor energy contributions	1,98	1,72	2,56	1,66	-10,13 kcal/mol	-10,29 kcal/mol	-10,00 kcal/mol	–	–	–	–	–	–	–	–	–	–	–	–	ΔG [8]: -10,11 kcal/mol; ΔΔG (to previous) [9]: 0,32 kcal/mol; ΔΔG (to previous) [10]: 0,56 kcal/mol; ΔΔG (to previous) [11]: 0,30 kcal/mol; ΔΔG (to previous) [12]: 0,39 kcal/mol
C[C@H](NC(=O)[C@H](CCCCN)NC(=O)[C@H](Cc1ccc([N+](=O)[O-])cc1)NC(=O)CCNC(=O)C[C@H](CO)NC(=O)[C@H](Cc1ccc([N+](=O)[O-])cc1)NC(=O)[C@H](COP(=O)(O)O)NC(=O)C(Cc1cscn1)NC(=O)[C@@H](N)Cc1ccc([N+](=O)[O-])cc1)C(=O)N[C@@H](CCCCNC(=S)Nc1ccc2c(c1)C(=O)OC21c2ccc(O)cc2Oc2cc(O)ccc21)C(N)=O (stereo partly drawn) [2b] (H-[Phe(4-NO2)][ξAla(4-thiazolyl)][pS][Phe(4-NO2)][β3hS][βAla][Phe(4-NO2)]KAK(FITC)-NH2)	only minor energy contributions	2,86	3,64	2,32	2,61	-9,52 kcal/mol	-9,53 kcal/mol	-9,50 kcal/mol	–	–	–	–	–	–	–	–	–	–	–	–	ΔG [8]: -9,54 kcal/mol; ΔΔG (to previous) [9]: 0,76 kcal/mol; ΔΔG (to previous) [10]: 0,50 kcal/mol; ΔΔG (to previous) [11]: 0,57 kcal/mol; ΔΔG (to previous) [12]: 0,61 kcal/mol
CCC[C@H](NC(=O)[C@@H](CCCCN)NC(=O)COCCNC(=S)Nc1ccc2c(c1)C(=O)OC21c2ccc(O)cc2Oc2cc(O)ccc21)C(=O)N[C@@H](Cc1ccc([N+](=O)[O-])cc1)C(=O)NC(Cc1cscn1)C(=O)N[C@@H](COP(=O)(O)O)C(=O)N[C@@H](Cc1ccc([N+](=O)[O-])cc1)C(=O)N[C@@H](CO)CC(=O)NCCC(=O)N[C@@H](Cc1ccc([N+](=O)[O-])cc1)C(N)=O (stereo partly drawn) [2e] ({FITC-AEA}-[dK][Nva][Phe(4-NO2)][ξAla(4-thiazolyl)][pS][Phe(4-NO2)][β3hS][βAla][Phe(4-NO2)]-NH2)	–	–	–	–	–	–	–	–	5,55	5,54	7,13	3,98	-9,53 kcal/mol	-9,60 kcal/mol	-9,39 kcal/mol	-9,59 kcal/mol	1,01 kcal/mol	1,16 kcal/mol	0,82 kcal/mol	1,00 kcal/mol	fold change in binding affinity on truncation: five-fold reduction
CCC[C@H](NC(=O)[C@@H](CCCCN)NC(=O)COCCNC(=S)Nc1ccc2c(c1)C(=O)OC21c2ccc(O)cc2Oc2cc(O)ccc21)C(=O)N[C@@H](Cc1ccc([N+](=O)[O-])cc1)C(=O)NC(Cc1cscn1)C(=O)N[C@@H](COP(=O)(O)O)C(=O)N[C@@H](Cc1ccc([N+](=O)[O-])cc1)C(=O)N[C@@H](CO)CC(=O)NCCC(N)=O (stereo partly drawn) [2f] ({FITC-AEA}-[dK][Nva][Phe(4-NO2)][ξAla(4-thiazolyl)][pS][Phe(4-NO2)][β3hS][βAla]-NH2)	1.5 kcal/mol	–	–	–	–	–	–	–	12,39	12,69	11,53	12,93	-8,04 kcal/mol	-8,10 kcal/mol	-7,95 kcal/mol	-8,07 kcal/mol	1,50 kcal/mol	1,45 kcal/mol	1,52 kcal/mol	1,49 kcal/mol	fold change in binding affinity on truncation: 12 fold
CCC[C@H](NC(=O)[C@@H](CCCCN)NC(=O)COCCNC(=S)Nc1ccc2c(c1)C(=O)OC21c2ccc(O)cc2Oc2cc(O)ccc21)C(=O)N[C@@H](Cc1ccc([N+](=O)[O-])cc1)C(=O)NC(Cc1cscn1)C(=O)N[C@@H](COP(=O)(O)O)C(=O)N[C@@H](Cc1ccc([N+](=O)[O-])cc1)C(=O)N[C@@H](CO)CC(N)=O (stereo partly drawn) [2g] ({FITC-AEA}-[dK][Nva][Phe(4-NO2)][ξAla(4-thiazolyl)][pS][Phe(4-NO2)][β3hS]-NH2)	0.4 kcal/mol	–	–	–	–	–	–	–	1,85	1,92	1,84	1,79	-7,67 kcal/mol	-7,71 kcal/mol	-7,59 kcal/mol	-7,73 kcal/mol	0,39 kcal/mol	0,36 kcal/mol	0,34 kcal/mol	0,36 kcal/mol	–
